The target in assay [1] is Alpha-2C adrenergic receptor (Homo sapiens, UniProt P18825). As to the kind of experiment: GPCRScan assay: inhibition of Alpha2C. The arrangement: radioligand conc. used [nm] 0.5 – 1.0, parental cells stable MDCK.
Assay [2] concerns the target Aurora kinase C (Homo sapiens) (UniProt Q9UQB9). The note with it: Compound concentration 1000.0 nM.
For assay [3], the target named is Cyclin-dependent kinase 4 (Homo sapiens) (UniProt P11802). The note with it: Compound concentration 1000.0 nM.
Assay [4] relates to Epidermal growth factor receptor (Homo sapiens), P00533 [UNDEFINED MUTATION]. The note with it: Compound concentration 1000.0 nM.
The target in assay [5] is Hepatocyte growth factor receptor (Homo sapiens) (UniProt P08581). Conditions: Compound concentration 1000.0 nM.
Assay [6] deals with Serine/threonine-protein kinase Nek10 (Homo sapiens) (UniProt Q6ZWH5). Conditions: Compound concentration 1000.0 nM.
Assay [7] deals with Tyrosine-protein kinase ABL1 (Homo sapiens) (UniProt P00519). The note with it: Compound concentration 1000.0 nM.
The target in assay [8] is Serine/threonine-protein kinase PAK 1 (Homo sapiens) (UniProt Q13153). Conditions: Compound concentration 1000.0 nM.
In assay [9] the target is Tyrosine-protein kinase Fyn (Homo sapiens) (UniProt P06241). The note with it: Compound concentration 1000.0 nM.
For assay [10], the target named is Calcium/calmodulin-dependent protein kinase type IV (Homo sapiens) (UniProt Q16566). The note with it: Compound concentration 1000.0 nM.
The target in assay [11] is Myosin light chain kinase (Homo sapiens) (UniProt Q32MK0). Conditions: Compound concentration 1000.0 nM.
The target of assay [12] is Phosphatidylinositol 4-kinase beta (Homo sapiens) (UniProt Q9UBF8). Conditions: Compound concentration 1000.0 nM.
The target of assay [13] is Myotonin-protein kinase (Homo sapiens) (UniProt Q09013). The note with it: Compound concentration 1000.0 nM.
The test system of assay [14] is Fibroblast growth factor receptor 3 (Homo sapiens), P22607 [G697C]. Conditions: Compound concentration 1000.0 nM.
Sequence of Fibroblast growth factor receptor 3 (Homo sapiens), P22607 [G697C] (P22607 whole entry G697C): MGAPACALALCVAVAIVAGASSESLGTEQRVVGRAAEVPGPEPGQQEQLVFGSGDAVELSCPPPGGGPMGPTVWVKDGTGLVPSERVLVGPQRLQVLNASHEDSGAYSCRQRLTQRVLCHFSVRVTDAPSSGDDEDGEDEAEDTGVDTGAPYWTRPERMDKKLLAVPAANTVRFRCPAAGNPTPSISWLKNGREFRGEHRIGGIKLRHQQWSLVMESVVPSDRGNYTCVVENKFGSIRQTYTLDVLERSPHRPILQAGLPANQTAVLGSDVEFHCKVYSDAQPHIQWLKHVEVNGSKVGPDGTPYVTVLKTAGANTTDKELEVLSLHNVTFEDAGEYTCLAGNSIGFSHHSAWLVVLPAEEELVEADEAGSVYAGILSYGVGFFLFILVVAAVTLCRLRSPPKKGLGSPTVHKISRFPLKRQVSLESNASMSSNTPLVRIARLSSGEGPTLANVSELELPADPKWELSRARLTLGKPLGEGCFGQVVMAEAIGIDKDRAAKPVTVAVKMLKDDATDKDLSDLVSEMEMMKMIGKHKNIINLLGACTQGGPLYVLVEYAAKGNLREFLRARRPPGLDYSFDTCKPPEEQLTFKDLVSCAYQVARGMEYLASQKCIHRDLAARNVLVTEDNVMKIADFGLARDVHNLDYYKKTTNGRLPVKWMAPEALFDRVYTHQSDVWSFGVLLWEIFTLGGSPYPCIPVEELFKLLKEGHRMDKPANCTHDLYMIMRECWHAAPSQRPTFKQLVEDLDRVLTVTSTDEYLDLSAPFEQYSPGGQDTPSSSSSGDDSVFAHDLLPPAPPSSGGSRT
In assay [15] the target is Serine/threonine-protein kinase WNK4 (Homo sapiens) (UniProt Q96J92). Conditions: Compound concentration 1000.0 nM.
Sequence of Serine/threonine-protein kinase WNK4 (Homo sapiens) (Q96J92 whole entry): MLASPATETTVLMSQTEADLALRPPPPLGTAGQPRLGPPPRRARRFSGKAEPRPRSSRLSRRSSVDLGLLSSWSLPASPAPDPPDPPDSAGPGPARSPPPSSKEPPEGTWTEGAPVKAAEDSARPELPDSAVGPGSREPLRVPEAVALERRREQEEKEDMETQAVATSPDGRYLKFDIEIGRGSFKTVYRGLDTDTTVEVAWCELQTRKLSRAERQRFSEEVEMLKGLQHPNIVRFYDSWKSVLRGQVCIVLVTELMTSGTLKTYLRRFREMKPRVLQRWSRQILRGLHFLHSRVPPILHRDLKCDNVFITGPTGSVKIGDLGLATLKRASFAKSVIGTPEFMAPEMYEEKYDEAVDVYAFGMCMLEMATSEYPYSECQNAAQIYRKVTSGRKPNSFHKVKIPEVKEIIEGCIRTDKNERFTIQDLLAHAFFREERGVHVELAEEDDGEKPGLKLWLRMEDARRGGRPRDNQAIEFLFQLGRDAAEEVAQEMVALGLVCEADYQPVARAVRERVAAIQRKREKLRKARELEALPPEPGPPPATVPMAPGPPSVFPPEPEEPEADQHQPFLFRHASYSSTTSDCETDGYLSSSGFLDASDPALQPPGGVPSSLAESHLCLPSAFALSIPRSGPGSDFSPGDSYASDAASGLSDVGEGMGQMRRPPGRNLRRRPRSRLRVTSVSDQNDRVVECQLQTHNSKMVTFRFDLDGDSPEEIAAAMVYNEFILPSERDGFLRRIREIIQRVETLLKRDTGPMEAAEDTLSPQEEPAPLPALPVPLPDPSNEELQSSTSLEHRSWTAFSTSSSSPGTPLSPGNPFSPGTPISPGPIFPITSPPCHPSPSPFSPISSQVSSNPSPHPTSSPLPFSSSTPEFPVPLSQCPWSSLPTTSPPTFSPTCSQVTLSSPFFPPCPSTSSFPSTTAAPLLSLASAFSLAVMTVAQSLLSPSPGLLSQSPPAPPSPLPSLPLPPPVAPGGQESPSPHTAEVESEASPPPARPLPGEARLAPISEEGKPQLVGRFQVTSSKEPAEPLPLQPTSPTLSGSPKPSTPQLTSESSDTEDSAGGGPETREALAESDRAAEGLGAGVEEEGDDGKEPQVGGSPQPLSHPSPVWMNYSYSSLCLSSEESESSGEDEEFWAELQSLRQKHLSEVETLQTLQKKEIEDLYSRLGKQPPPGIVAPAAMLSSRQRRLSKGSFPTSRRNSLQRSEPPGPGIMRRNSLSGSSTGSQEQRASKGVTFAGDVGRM
The target of assay [16] is Homeodomain-interacting protein kinase 1 (Homo sapiens) (UniProt Q86Z02). Conditions: Compound concentration 1000.0 nM.
Assay [17] has as its target STE20-like serine/threonine-protein kinase (Homo sapiens) (UniProt Q9H2G2). The note with it: Compound concentration 1000.0 nM.
In assay [18] the test system is Tyrosine-protein kinase ABL1 (Homo sapiens), P00519 [E255K]. Conditions: Compound concentration 1000.0 nM.
The target in assay [19] is Serine/threonine-protein kinase TAO3 (Homo sapiens) (UniProt Q9H2K8). Conditions: Compound concentration 1000.0 nM.
The target of assay [20] is Serine/threonine-protein kinase PknB (Mycobacterium tuberculosis) (UniProt P9WI81). The note with it: Compound concentration 1000.0 nM.
Assay [21] deals with SRSF protein kinase 1 (Homo sapiens) (UniProt Q96SB4). The note with it: Compound concentration 1000.0 nM.
The target in assay [22] is Casein kinase II subunit alpha' (Homo sapiens) (UniProt P19784). The note with it: Compound concentration 1000.0 nM.
For assay [23], the target named is Vascular endothelial growth factor receptor 3 (Homo sapiens) (UniProt P35916). The note with it: Compound concentration 1000.0 nM.
Assay [24] addresses Casein kinase I isoform gamma-3 (Homo sapiens) (UniProt Q9Y6M4). The note with it: Compound concentration 1000.0 nM.
Assay [25] has as its target cGMP-dependent protein kinase 2 (Homo sapiens) (UniProt Q13237). The note with it: Compound concentration 1000.0 nM.
The target of assay [26] is Tyrosine-protein kinase Fer (Homo sapiens) (UniProt P16591). The note with it: Compound concentration 1000.0 nM.
The target of assay [27] is Receptor tyrosine-protein kinase erbB-3 (Homo sapiens) (UniProt P21860). Conditions: Compound concentration 1000.0 nM.
Assay [28] concerns the target Serine/threonine-protein kinase OSR1 (Homo sapiens) (UniProt O95747). The note with it: Compound concentration 1000.0 nM.
The target of assay [29] is Dual specificity protein kinase CLK2 (Homo sapiens) (UniProt P49760). The note with it: Compound concentration 1000.0 nM.
Assay [30] concerns eIF-2-alpha kinase GCN2 (Homo sapiens), Q9P2K8 [S808G]. The note with it: Compound concentration 1000.0 nM.
Assay [31] concerns the target Cyclin-dependent kinase 8 (Homo sapiens) (UniProt P49336). The note with it: Compound concentration 1000.0 nM.
The subject of assay [32] is Mast/stem cell growth factor receptor Kit (Homo sapiens), P10721 [L576P]. The note with it: Compound concentration 1000.0 nM.
Assay [33] has as its target Cyclin-dependent kinase 13 (Homo sapiens) (UniProt Q14004). Conditions: Compound concentration 1000.0 nM.
The target of assay [34] is Mitogen-activated protein kinase kinase kinase 6 (Homo sapiens) (UniProt O95382). The note with it: Compound concentration 1000.0 nM.
The target in assay [35] is Serine/threonine-protein kinase MRCK beta (Homo sapiens) (UniProt Q9Y5S2). Conditions: Compound concentration 1000.0 nM.
Assay [36] concerns the target Serine/threonine-protein kinase/endoribonuclease IRE1 (Homo sapiens) (UniProt O75460). The note with it: Compound concentration 1000.0 nM.
Assay [37] has as its target Activin receptor type-2A (Homo sapiens) (UniProt P27037). The note with it: Compound concentration 1000.0 nM.
The target of assay [38] is Ribosomal protein S6 kinase alpha-3 (Homo sapiens) (UniProt P51812). The note with it: Compound concentration 1000.0 nM.
Assay [39] has as its target Serine/threonine-protein kinase BRSK2 (Homo sapiens) (UniProt Q8IWQ3). Conditions: Compound concentration 1000.0 nM.
The target of assay [40] is Angiopoietin-1 receptor (Homo sapiens) (UniProt Q02763). The note with it: Compound concentration 1000.0 nM.
Assay [41] deals with Inhibitor of nuclear factor kappa-B kinase subunit alpha (Homo sapiens) (UniProt O15111). The note with it: Compound concentration 1000.0 nM.
Sequence of Inhibitor of nuclear factor kappa-B kinase subunit alpha (Homo sapiens) (O15111 whole entry): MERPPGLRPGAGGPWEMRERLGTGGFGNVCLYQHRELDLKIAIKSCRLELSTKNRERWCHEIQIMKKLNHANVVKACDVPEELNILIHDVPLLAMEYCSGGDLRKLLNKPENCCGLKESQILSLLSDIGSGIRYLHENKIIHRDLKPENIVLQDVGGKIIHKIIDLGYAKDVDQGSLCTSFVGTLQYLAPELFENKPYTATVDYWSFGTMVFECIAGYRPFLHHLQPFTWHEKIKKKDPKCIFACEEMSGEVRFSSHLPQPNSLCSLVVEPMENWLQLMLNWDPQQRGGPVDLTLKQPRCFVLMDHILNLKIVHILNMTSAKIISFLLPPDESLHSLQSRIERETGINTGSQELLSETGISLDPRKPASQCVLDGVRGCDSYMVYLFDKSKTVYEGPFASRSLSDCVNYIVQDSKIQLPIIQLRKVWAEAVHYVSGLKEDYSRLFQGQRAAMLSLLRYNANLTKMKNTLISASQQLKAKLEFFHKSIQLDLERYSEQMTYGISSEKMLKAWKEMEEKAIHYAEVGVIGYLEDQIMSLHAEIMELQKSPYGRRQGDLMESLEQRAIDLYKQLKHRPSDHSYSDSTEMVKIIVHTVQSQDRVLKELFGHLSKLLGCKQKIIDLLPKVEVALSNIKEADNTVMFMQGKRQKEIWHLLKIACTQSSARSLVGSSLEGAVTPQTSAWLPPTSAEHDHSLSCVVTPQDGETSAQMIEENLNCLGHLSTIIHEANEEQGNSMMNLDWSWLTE
Assay [42] concerns the target BDNF/NT-3 growth factors receptor (Homo sapiens) (UniProt Q16620). Conditions: Compound concentration 1000.0 nM.
Assay [43] relates to Hepatocyte growth factor receptor (Homo sapiens), P08581 [Y1235D]. The note with it: Compound concentration 1000.0 nM.
Assay [44] concerns the target Receptor tyrosine-protein kinase erbB-2 (Homo sapiens) (UniProt P04626). Conditions: Compound concentration 1000.0 nM.
For assay [45], the target named is Mitogen-activated protein kinase 15 (Homo sapiens) (UniProt Q8TD08). Conditions: Compound concentration 1000.0 nM.
Assay [46] has as its target Serine/threonine-protein kinase N2 (Homo sapiens) (UniProt Q16513). The note with it: Compound concentration 1000.0 nM.

Sequence of Activin receptor type-2A (Homo sapiens) (P27037 whole entry): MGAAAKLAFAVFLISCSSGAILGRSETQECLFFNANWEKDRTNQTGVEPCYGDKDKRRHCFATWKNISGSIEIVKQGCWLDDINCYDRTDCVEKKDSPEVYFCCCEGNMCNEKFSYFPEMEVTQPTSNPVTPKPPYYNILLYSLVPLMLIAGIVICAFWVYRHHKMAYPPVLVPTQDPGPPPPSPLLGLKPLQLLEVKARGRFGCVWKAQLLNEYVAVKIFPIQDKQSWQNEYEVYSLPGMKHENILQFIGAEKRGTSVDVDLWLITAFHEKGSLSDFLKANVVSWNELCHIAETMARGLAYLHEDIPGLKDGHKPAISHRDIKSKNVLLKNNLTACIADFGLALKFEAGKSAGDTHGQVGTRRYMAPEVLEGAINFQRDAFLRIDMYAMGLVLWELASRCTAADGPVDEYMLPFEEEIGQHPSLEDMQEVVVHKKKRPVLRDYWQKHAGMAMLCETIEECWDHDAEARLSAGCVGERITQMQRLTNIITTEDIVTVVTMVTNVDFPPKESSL
Sequence of cGMP-dependent protein kinase 2 (Homo sapiens) (Q13237 whole entry): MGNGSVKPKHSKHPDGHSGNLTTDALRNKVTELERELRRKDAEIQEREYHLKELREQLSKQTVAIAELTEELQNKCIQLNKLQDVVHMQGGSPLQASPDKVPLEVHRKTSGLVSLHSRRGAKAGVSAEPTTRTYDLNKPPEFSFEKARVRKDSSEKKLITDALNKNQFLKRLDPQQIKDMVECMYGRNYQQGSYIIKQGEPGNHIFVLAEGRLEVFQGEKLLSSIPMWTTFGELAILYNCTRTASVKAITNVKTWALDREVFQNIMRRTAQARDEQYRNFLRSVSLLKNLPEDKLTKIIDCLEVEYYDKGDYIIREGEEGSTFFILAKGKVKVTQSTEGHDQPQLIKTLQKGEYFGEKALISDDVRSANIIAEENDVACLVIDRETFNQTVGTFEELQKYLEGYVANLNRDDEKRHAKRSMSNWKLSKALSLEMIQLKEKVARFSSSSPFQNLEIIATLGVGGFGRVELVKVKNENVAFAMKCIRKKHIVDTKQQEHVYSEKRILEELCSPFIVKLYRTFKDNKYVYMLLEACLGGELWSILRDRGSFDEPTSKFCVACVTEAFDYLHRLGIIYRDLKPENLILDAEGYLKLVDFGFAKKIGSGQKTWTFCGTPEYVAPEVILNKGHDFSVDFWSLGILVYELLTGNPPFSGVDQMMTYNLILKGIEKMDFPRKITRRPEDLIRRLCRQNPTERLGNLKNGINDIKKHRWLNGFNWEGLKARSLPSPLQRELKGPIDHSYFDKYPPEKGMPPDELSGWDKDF
Sequence of BDNF/NT-3 growth factors receptor (Homo sapiens) (Q16620 32-822 limits assumed): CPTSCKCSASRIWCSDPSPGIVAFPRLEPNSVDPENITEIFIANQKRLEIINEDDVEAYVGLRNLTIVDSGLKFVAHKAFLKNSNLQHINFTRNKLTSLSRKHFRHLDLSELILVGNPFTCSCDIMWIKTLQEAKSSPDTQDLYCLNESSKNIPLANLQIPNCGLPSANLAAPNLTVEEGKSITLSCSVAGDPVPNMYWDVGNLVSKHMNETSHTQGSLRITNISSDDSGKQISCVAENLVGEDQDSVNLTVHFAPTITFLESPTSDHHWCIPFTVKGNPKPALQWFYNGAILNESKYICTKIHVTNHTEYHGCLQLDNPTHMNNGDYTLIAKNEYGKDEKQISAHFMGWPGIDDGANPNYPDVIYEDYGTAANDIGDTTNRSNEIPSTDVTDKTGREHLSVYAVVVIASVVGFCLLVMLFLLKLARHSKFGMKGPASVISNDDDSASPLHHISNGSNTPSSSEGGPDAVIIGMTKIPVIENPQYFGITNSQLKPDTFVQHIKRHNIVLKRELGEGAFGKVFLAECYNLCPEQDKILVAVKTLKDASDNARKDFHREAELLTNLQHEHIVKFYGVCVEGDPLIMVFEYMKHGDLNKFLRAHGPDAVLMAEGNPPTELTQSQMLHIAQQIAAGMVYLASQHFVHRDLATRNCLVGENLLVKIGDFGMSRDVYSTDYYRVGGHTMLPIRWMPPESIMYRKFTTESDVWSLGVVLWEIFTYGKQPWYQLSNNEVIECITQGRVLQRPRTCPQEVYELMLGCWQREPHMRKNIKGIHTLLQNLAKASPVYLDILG

`CC(C)(C)OC(=O)N1CCCC1CNC1CCC(c2cc(F)ccc2F)(S(=O)(=O)c2ccc(Cl)cc2)CC1` (stereo unspecified) [GSI-NC]: the Ki in [1] is 0.653 µM.

`O=S(=O)(NC1CCC(c2cc(F)ccc2F)(S(=O)(=O)c2ccc(Cl)cc2)CC1)C(F)(F)F` (stereo unspecified) [MRK-560]: the residual activity in assay [2] is 94%; in assay [3], 91%; in [4], 80%; in assay [5] it was 100%; in assay [6], 100%; in [7] it was 87%. Also, the residual activity in assay [8] is 93%; in assay [9], 85%; in [10], 100%; in assay [11], 86%; in assay [12] it was 82%; in assay [13], 100%. Also, the residual activity in assay [14], in assay [15], in assay [16], in [17], in [18] and in [19] was 100% in each case. Further, the residual activity in assay [20] was 91%; in [21] it was 100%; in assay [22], 99%; in [23], 100%; in [24], 83%; in [25], 100%. The residual activity in [26] was 100%; in [27], 93%; in assay [28] it was 91%; in [29] it was 100%; in assay [30] it was 100%; in assay [31], 100%. Moreover, the residual activity in assay [32] is 100%; in [33], 92%; in assay [34], 82%; in [35], 100%; in assay [36], 100%; in [37] it was 63%. Also, the residual activity in assay [38] is 83%; in assay [39] it was 100%; in assay [40] it was 85%; in assay [41], 100%; in assay [42], 83%; in [43], 97%. The figures for the residual activity in [44], in assay [45] and in assay [46] were 91%, 94% and 100%, respectively.
